Data on two compounds can be found in PubChem BioAssay (NCI).

Some test systems named below: A498 renal; A549 NSCLC; CAKI-1 renal; COLO 205 colon; DU-145 prostate; HCT-116 colon; HL-60(TB) leukemia; HS 578T breast; HT29 colon; IGROV1 ovarian; NCI-H460 lung; OVCAR-3 ovarian; OVCAR-5 ovarian; OVCAR-8 ovarian; SF-295 CNS; TK-10 renal; U251 CNS; UO-31 renal; RXF 393 renal.
Assay in all cases: growth of human tumour cells (NCI), 48 h

The structures appear in SMILES notation.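 All cell lines were grown in 96-well plates and treated with compound for 48 hours. GI50 = concentration required for 50% inhibition of growth. TGI is the concentration that stops growth completely.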

On to `OC(c1cc(-c2ccc(C(F)(F)F)cc2)nc(-c2ccc(C(F)(F)F)cc2)c1)C1CCCCN1` (configuration not stated), for which the GI50 is 1560 nM with A498 renal; 1720 nM with A549 NSCLC; 1890 nM with CAKI-1 renal; 893 nM in the experiment with COLO 205 colon; 1780 nM with DU-145 prostate; 1660 nM in the experiment on HCT-116 colon. Besides, the GI50 in the experiment on HL-60(TB) leukemia was 2050 nM; in the experiment with HS 578T breast, 1470 nM; in the experiment with HT29 colon, 1620 nM; with IGROV1 ovarian it was 1830 nM; in the experiment on NCI-H460 lung it was 1620 nM; with OVCAR-3 ovarian it was 1780 nM. Also, the GI50 was 1580 nM with OVCAR-5 ovarian; 1470 nM in the experiment with OVCAR-8 ovarian; 1750 nM in the experiment on SF-295 CNS; 1820 nM in the experiment with TK-10 renal; 1710 nM in the experiment on U251 CNS; 1560 nM with UO-31 renal. Besides, the TGI in the experiment on A498 renal was determined as 2960 nM; with A549 NSCLC, 3280 nM; with CAKI-1 renal, 3790 nM; in the experiment with COLO 205 colon it was 2100 nM; in the experiment with DU-145 prostate it was 3160 nM; in the experiment with HCT-116 colon it was 3180 nM. Also, the TGI with HL-60(TB) leukemia came out at 3880 nM; with HS 578T breast it was 3200 nM; in the experiment with HT29 colon it was 3090 nM; in the experiment with IGROV1 ovarian, 3670 nM; in the experiment on NCI-H460 lung, 3080 nM; with OVCAR-3 ovarian it was 3250 nM. Also, the TGI came to 3060 nM with OVCAR-5 ovarian; 3100 nM in the experiment on OVCAR-8 ovarian; 3330 nM with SF-295 CNS; 3280 nM in the experiment on TK-10 renal; 3320 nM with U251 CNS; 3300 nM in the experiment on UO-31 renal.
With `O=C(O)C1CC[N-]CC1.O=C(O)C1CC[N-]CC1.[Cl][Pt+2]([Cl])([Cl])[Cl]`, the GI50 with RXF 393 renal was 34200 nM.
